Measurements reported in patent US11466029B2, “Compounds useful to treat influenza virus infections” (Nanjing Zhengxiang Pharmaceuticals Co., Ltd., priority 2019, dated 2022).
“Also recorded” adds a separate entry of the source. Like-named read-outs stand apart in the source and are kept apart here.

Columns and labels:
[1] = target: Influenza Virus CEN PAn enzyme (UniProt P03433); type: biochemical; settings: read-out: CEN IC50
[2] = plasma B-1
Description: (§1) B-1 was administered to male cynomolgus monkeys (2-5 years old, 2-5 kg, 3 animals each group) via intravenous (IV) bolus at 0.25 mg/kg and by oral gavage (PO) at 1 mg/kg; Animals in the IV group had free access to food and water (non-fasted) and animals in the PO group were fasted overnight prior to dosing (fasted). C-1 was administered to male cynomolgus monkeys (fasted or non-fasted, 3 each group) via oral gavage at 1 mg/kg. Blood samples (˜0.5 mL each time point) were collected via the jugular vein into tubes containing potassium ethylenediaminetetraacetic acid (K2EDTA) as the anticoagulant at 0.033, 0.083, 0.25, 0.5, 1, 2, 4, 8 and 24 hours post dose for IV administration and 0.083, 0.25, 0.5, 1, 2, 4, 8 and 24 hours post dose for PO administration. The blood samples were then centrifuged for 10 minutes in a centrifuge refrigerated at 2-8° C. The resultant plasma samples were analyzed using LC/MS/MS to determine concentrations of B-1. Non-compartmental model with WinNonlin (Phoenix™, version 6.1) software was used to calculate pharmacokinetic (PK) parameters.

in vivo [3] = settings: male, CD-1, mouse, iv, 1 mg/kg
Description: (§2) B-1 was administered to male CD-1 mice (4-6 weeks old, 20-30 grams, 3 animals each group) via intravenous (IV) bolus at 1 mg/kg and by oral gavage (PO) at 10 mg/kg. […] All animals had free access to food and water prior to dosing. Blood samples (˜0.03 mL each time point) were collected via the jugular vein into tubes containing sodium heparin as the anticoagulant at 0.033, 0.083, 0.25, 0.5, 1, 2, 4, 8 and 24 hours post dose for IV administration and 0.083, 0.25, 0.5, 1, 2, 4, 8 and 24 hours post dose for PO administration. The blood samples were then centrifuged for 5 minutes in a centrifuge refrigerated at 4° C. The resultant plasma samples were analyzed using LC/MS/MS to determine concentrations of B-1. Non-compartmental model with WinNonlin (Phoenix™, version 8.0) software was used to calculate pharmacokinetic (PK) parameters.

A/Hongkong/8/68 (H3N2) = assay: microbe, parasite or virus in culture; type: cell-based; settings: Influenza A virus, H3N2, MDCK, 120 h
Pharmacokinetics in Rats = type: in vivo; parameters: AUClast: unit not given here; settings: non-fasted male SD rats, plasma B-1
Description: C-1 was administered to 3 non-fasted male SD rats via oral gavage at 3 mg/kg.

influenza virus = type: cell-based
IFV A/PR/8/34 (H1N1) = assay: microbe, parasite or virus in culture; type: cell-based; settings: Influenza A virus, MDCK, 120 h
B/Lee/40 = assay: microbe, parasite or virus in culture; type: cell-based; settings: Influenza B virus, MDCK, 120 h
B/Florida/78/2015 = assay: microbe, parasite or virus in culture; type: cell-based; settings: Influenza B virus, MDCK, 120 h
A/Weiss/43 (H1N1) = assay: microbe, parasite or virus in culture; type: cell-based; settings: Influenza A virus, H1N1, MDCK, 120 h
influenza virus PR/8/34 = system: influenza virus PR/8/34; parameters: species or system Balb/c mice; settings: in vivo
[4] = system: A/California/07/2009 (H1N1)pdm09; assay: microbe, parasite or virus in culture; type: cell-based; settings: Influenza A virus, H1N1, MDCK, 120 h
in vitro = settings: dog
[5] = male CD-1 mice, plasma B-1
Description: as §2

IFV A/WSN/33 (H1N1) = assay: microbe, parasite or virus in culture; type: cell-based; settings: Influenza A virus, MDCK, 120 h
in vivo [6] = settings: male, cynomolgus monkey, iv, 0.25 mg/kg
Description: as §1

[7] = Sprague-Dawley (SD), rat, IV 0.25 mg/kg

O=C1c2c(O)c(=O)ccn2N([C@@H]2c3ccccc3[Se]Cc3c2ccc(F)c3F)[C@@H]2COCCN12 [Compound B-1, (R)-12-((S)-7,8-Difluoro-6,11-Dihydrodibenzo[b,e]Selenepin-11-yl)-7-Hydroxy-3,4,12,12a-Tetrahydro-1H-[1,4]Oxazino[3,4-c]Pyrido[2,1-f][1,2,4]Triazine-6,8-Dione]
IC50 [1]: 15 nM
AUClast ([2]; IV 0.25 mg/kg, non-fasted male cynomolgus monkeys): 204
AUClast ([2]; PO 1 mg/kg, fasted male cynomolgus monkeys): 231
AUC(0-inf) (in vivo [3]): 608 ng·h/mL
half-life (in vivo [3]): 4.1 h
EC50 (A/Hongkong/8/68 (H3N2)): 0.68 nM
AUClast (Pharmacokinetics in Rats; IV 0.25 mg/kg): 84
AUClast (Pharmacokinetics in Rats; PO 3 mg/kg): 123
AUC(0-inf) (Pharmacokinetics in Rats; [7]): 92 ng·h/mL
half-life (Pharmacokinetics in Rats; [7]): 4 h
antivirus activity (influenza virus): potent antivirus activity
EC50 (IFV A/PR/8/34 (H1N1)): 1.1 nM
EC50 (B/Lee/40): 12 nM
EC50 (B/Florida/78/2015): 25 nM
EC50 (A/Weiss/43 (H1N1)): 1.2 nM
antivirus efficacy in influenza virus PR/8/34 mouse model (influenza virus PR/8/34): potent antivirus efficacy; also recorded: potent antivirus activity
survival (influenza virus PR/8/34; mouse, po): survived throughout the study
body weight loss (influenza virus PR/8/34; mouse, po, 5 mg/kg): minimal
EC50 [4]: 0.37 nM
CC50 (in vitro): 13000 nM
AUClast ([5]; IV 1 mg/kg): 601
AUClast ([5]; PO 10 mg/kg): 2129
EC50 (IFV A/WSN/33 (H1N1)): 0.32 nM
cytotoxicity (MDCK cells): little cytotoxicity
AUC(0-inf) (in vivo [6]): 257 ng·h/mL
half-life (in vivo [6]): 11 h
